The numbers were not newly measured in publication PMC7692329, “Inhibitory Effect of AB-PINACA, Indazole Carboxamide Synthetic Cannabinoid, on Human Major Drug-Metabolizing Enzymes and Transporters” (Pharmaceutics, 2020), which cites them from elsewhere.

Read-outs that look alike come from different tables or passages of the source.

One series relates to CYP3A4. The note with it: cited from earlier work.
For series [1], the system named is OCT1/2, OAT1/3, and OATP1B1/1B3. The arrangement: method as in PMID 31430908. The note with it: cited from earlier work.
In a further series the test system is UGT1A9. The note with it: read-out: Ki, UGT1A9; noncompetitive inhibition; cited from earlier work.
The next series concerns CYP2C8. As to conditions: cited from earlier work.
The next series concerns UGT1A3. As to conditions: cited from earlier work.
In another series the test system is CYP2C19. As to conditions: cited from earlier work.
Another series has as its system CYP2C9. The note with it: cited from earlier work.
The test system of the next series is CES1. The arrangement: method as in PMID 25346527. The note with it: 100 μM benzil, human liver microsomes; cited from earlier work.
The conditions of series [2]: child, chewing an AB-PINACA contaminated cigarette; cited from earlier work.
Another series concerns CYP2D6. As to conditions: read-out: Ki, CYP2D6; cited from earlier work.
A further series concerns CYP2B6. The note with it: read-out: Ki, CYP2B6; cited from earlier work.
In the next series the test system is UGT2B7. Details: method as in PMID 28287454. The note with it: cited from earlier work.
The mark [3] stands for this setting: read-out: Ki, CYP3A4 (time-dependent), time-dependent inhibition.

Turning to `CCCCCn1nc(C(=O)NC23CC4CC(CC(C4)C2)C3)c2ccccc21` [APINACA, N-(1-adamantyl)-1-pentyl-1H-indazole-3-carboxamide], the Ki in the series on CYP3A4 (setting [3]) was 4.5 µM. In the series with CYP3A4 (time-dependent inhibition), the “kinact, CYP3A4” value is 0.04686 min⁻¹ and the “kinact/Ki, CYP3A4” value is 172 M⁻¹ s⁻¹. Moreover, in series [1], the “inhibition of transport activity of OCT1/2, OAT1/3, and OATP1B1/1B3” value is given as “did not inhibit”. Further, in the series on UGT1A9, the Ki was 5.9 µM.

Turning to `CCc1ccc(C(=O)c2cn(CCCCCF)c3ccccc23)c2ccccc12` [EAM-2201], the Ki with CYP2C8 (read-out: Ki, CYP2C8 (time-dependent), time-dependent inhibition) is 0.54 µM; in the series with UGT1A3 (competitive inhibition), 2.4 µM; in the series on CYP3A4 (setting [3]) it was 4.1 µM; in the series with CYP2C19 (read-out: Ki, CYP2C19 (time-dependent), time-dependent inhibition) it was 3.8 µM; in the series on CYP2C9 (read-out: Ki, CYP2C9 (time-dependent), time-dependent inhibition), 3 µM. Moreover, the “kinact, CYP2C8” value with CYP2C8 (time-dependent inhibition) was 0.0633 min⁻¹. In addition, the “kinact, CYP3A4” value with CYP3A4 (time-dependent inhibition) is 0.0250 min⁻¹. For the same compound, the “kinact/Ki, CYP3A4” value with CYP3A4 (time-dependent inhibition) is 115 M⁻¹ s⁻¹. Further, the “kinact, CYP2C19” value with CYP2C19 (time-dependent inhibition) is 0.0264 min⁻¹. In addition, in the series on CYP2C9 (time-dependent inhibition), the “kinact, CYP2C9” value was 0.0462 min⁻¹.

Regarding `O=C(C(=O)c1ccccc1)c1ccccc1` [benzil], the “effect on formation of AB-PINACA carboxylic acid” value with CES1 is “abolished”.

For the compound `CC(C)C(NC(=O)c1nn(CCCCC(=O)O)c2ccccc12)C(N)=O` (stereo not shown) [AB-PINACA pentanoic acid], in series [2], the serum level is reported as 345 ng/mL.

With `CC[C@H]1OC(=O)[C@H](C)[C@@H](O[C@H]2C[C@@](C)(OC)[C@@H](O)[C@H](C)O2)[C@H](C)[C@@H](O[C@@H]2O[C@H](C)C[C@H](N(C)C)[C@H]2O)[C@](C)(OC)C[C@@H](C)C(=O)[C@H](C)[C@@H](O)[C@]1(C)O` [clarithromycin], in the series on CYP3A4 (representative clinical CYP3A4-mediated drug interactions), the “inactivation efficiency (kinact/Ki), CYP3A4” value was 46.7 M⁻¹ s⁻¹.

For `CC(C)C(NC(=O)c1nn(Cc2ccc(F)cc2)c2ccccc12)C(N)=O` (stereo not shown) [AB-FUBINACA, N-(1-amino-3-methyl-1-oxobutan-2-yl)-1-(4-fluorobenzyl)-1H-indazole-3-carboxamide], the Ki in the series with CYP2C8 (read-out: Ki, CYP2C8) is 19.9 µM; in the series on CYP2C19 (read-out: Ki, CYP2C19) it was 6.3 µM; with CYP2C9 (read-out: Ki, CYP2C9) it was 13.1 µM; in the series with CYP2D6, 20.8 µM; in the series with CYP2B6, 15 µM. The “inhibition of CYP3A4” value with CYP3A4 is on record as “did not inhibited”.

For the compound `Cc1ccc(C(=O)c2cn(CCCCCF)c3ccccc23)c2ccccc12` [MAM-2201], the Ki in the series on UGT1A3 is 5 µM; with CYP3A4 (read-out: Ki, CYP3A4) it was 5.4 µM; in the series with CYP2C9 (read-out: Ki, CYP2C9), 5.6 µM.

Turning to `O=C(c1cccc2ccccc12)c1cn(CCCCCF)c2ccccc12` [AM-2201], the IC50 (commonly the concentration at which inhibition is half-maximal) in the series with UGT1A3 was 4.3 µM; with UGT2B7, 10 µM; in the series on CYP3A4 (read-out: IC50, CYP3A4), 4 µM; in the series with CYP2C9 (read-out: IC50, CYP2C9) it was 3.9 µM.
